Laboratory results published in the supplement of paper PMC13380429.

How the values were obtained:
Conditions in all cases: 72 h
Vero E6 [1] = assay: cell viability relative to DMSO; higher = less toxic
U2OS [2] = assay: as above
HepG2 [3] = assay: as above
Caco-2 [4] = assay: as above
Calu-3 [5] = assay: as above
Vero E6 [6] = assay: relative viability EC50 (midpoint between 100% and the lowest measured viability); higher = less toxic
U2OS [7] = assay: as above
HepG2 [8] = assay: as above
Caco-2 [9] = assay: as above
Calu-3 [10] = assay: as above
Vero E6 [11] = assay: drug sensitivity score (DSS) for viability; higher = more toxic; extreme values may be limits of the assay
U2OS [12] = assay: as above
HepG2 [13] = assay: as above
Caco-2 [14] = assay: as above
Calu-3 [15] = assay: as above

| SMILES | cell viability (Vero E6 [1]; 1 nM) [%] | cell viability (Vero E6 [1]; 10 nM) [%] | cell viability (Vero E6 [1]; 100 nM) [%] | cell viability (Vero E6 [1]; 1000 nM) [%] | cell viability (Vero E6 [1]; 10000 nM) [%] | cell viability (U2OS [2]; 1 nM) [%] | cell viability (U2OS [2]; 10 nM) [%] | cell viability (U2OS [2]; 100 nM) [%] | cell viability (U2OS [2]; 1000 nM) [%] | cell viability (U2OS [2]; 10000 nM) [%] | cell viability (HepG2 [3]; 1 nM) [%] | cell viability (HepG2 [3]; 10 nM) [%] | cell viability (HepG2 [3]; 100 nM) [%] | cell viability (HepG2 [3]; 1000 nM) [%] | cell viability (HepG2 [3]; 10000 nM) [%] | cell viability (Caco-2 [4]; 1 nM) [%] | cell viability (Caco-2 [4]; 10 nM) [%] | cell viability (Caco-2 [4]; 100 nM) [%] | cell viability (Caco-2 [4]; 1000 nM) [%] | cell viability (Caco-2 [4]; 10000 nM) [%] | cell viability (Calu-3 [5]; 1 nM) [%] | cell viability (Calu-3 [5]; 10 nM) [%] | cell viability (Calu-3 [5]; 100 nM) [%] | cell viability (Calu-3 [5]; 1000 nM) [%] | cell viability (Calu-3 [5]; 10000 nM) [%] | relative viability EC50 (Vero E6 [6]) [µM] | relative viability EC50 (U2OS [7]) [µM] | relative viability EC50 (HepG2 [8]) [µM] | relative viability EC50 (Caco-2 [9]) [µM] | relative viability EC50 (Calu-3 [10]) [µM] | drug sensitivity score (Vero E6 [11]) | drug sensitivity score (U2OS [12]) | drug sensitivity score (HepG2 [13]) | drug sensitivity score (Caco-2 [14]) | drug sensitivity score (Calu-3 [15]) |
| --- | --- | --- | --- | --- | --- | --- | --- | --- | --- | --- | --- | --- | --- | --- | --- | --- | --- | --- | --- | --- | --- | --- | --- | --- | --- | --- | --- | --- | --- | --- | --- | --- | --- | --- | --- |
| C=C[C@@](C)(/C=C/c1ccc(O)cc1)CCC=C(C)C [bakuchiol] | 103 | 110 | 98.7 | 97.6 | 98.5 | 96.1 | 101 | 98 | 92.8 | 97.6 | 107 | 115 | 87.9 | 93 | 81.5 | 105 | 87.4 | 109 | 96.8 | 97.6 | 94.8 | 94.9 | 95.7 | 96.1 | 98.2 | > 10 | > 10 | > 10 | > 10 | > 10 | 0 | 0 | 0.9 | 0 | 0 |
| C=CC[C@]1(O)CC[C@H]2[C@@H]3CCC4=CCCC[C@@H]4[C@H]3CC[C@@]21C [allylestrenol] | 102 | 91.5 | 106 | 103 | 97.7 | 94.6 | 98.1 | 94.8 | 99.4 | 99.5 | 105 | 104 | 108 | 105 | 98.3 | 107 | 102 | 112 | 102 | 88.8 | 98 | 108 | 116 | 104 | 106 | > 10 | > 10 | > 10 | > 10 | > 10 | 0 | 0 | 0 | 0 | 0 |
| N#Cc1cc(F)cc(-c2nc(-c3ccc(F)cn3)no2)c1 [AZD9272] | 96.7 | 95.2 | 95.8 | 89.5 | 108 | 94.9 | 99 | 96.7 | 104 | 103 | 94.3 | 99.5 | 95.5 | 107 | 96.2 | 96.7 | 105 | 101 | 111 | 94.8 | 109 | 92.1 | 97.7 | 90.4 | 97.5 | > 10 | > 10 | > 10 | > 10 | > 10 | 0 | 0 | 0 | 0 | 0 |
